Measurements reported in patent US8987486B2, “Trans-2-decenoic acid derivative and pharmaceutical agent containing the same” (Nagoya Industrial Science Research Institute, priority 2010, dated 2015).

Assays:
[1] = test system: PC12 cells; assay: Evaluation using PC12 cells; immunostaining method for MAPK phosphorylation; type: cell-based; details: 30 minutes
Procedure, shortened: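 PC12 cells in DMEM with 1% FBS, exposed to compound for 30 min after 12–16 h in that medium; fixed and immunostained for phospho-p42/44 MAPK, nuclei counterstained with Hoechst. Value is percentage of pMAPK-positive cells (above a luminance threshold) among Hoechst-positive cells, from four images per coverslip.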

[2] = test system: disablement model rats with hemi-transection of spinal cord; assay: Improvement in motor function (BBB scale) in rats with hemi-transection of spinal cord; type: in vivo
Procedure: Female Wistar rats of seven weeks age (body weight: 120 to 140 g) were anesthetized with pentobarbital (40 mg/kg), thoracic vertebrae were detached to expose the thoracic cord and the left half thereof was cut at the position of the tenth thoracic cord using a sharp razor. After that, the muscle and the skin were satured to prepare disablement model rats with hemi-transection of spinal cord.
The compound of the present invention was dissolved in PBS or in a PBS solvent containing DMSO, etc. and orally administered once daily for 21 to 31 days.
With regard to the group administered with the compound of the present invention (n=3 to 6) and the control group (n=3 to 6), the improvement in motor function of the disablement model rats with hemi-transection of spinal cord was evaluated by a BBB scale (Basso D M, et al., J. Neurotrauma 12:1-21 (1995). Thus, evaluation of motor function was conducted for hind limbs of rats in such respects that whether the joint moves, whether body weight is applied onto the foot, whether walking is done, etc. wherein the movement of the hind limbs was divided into 21 points from no motility to normal state. Incidentally, the test for significance was conducted by a two-way ANOVA, Bonferroni Post test.

| SMILES | Rate of pMAPK-positive cells (%) ([1]; 62.5 μg/mL) | Rate of pMAPK-positive cells (%) ([1]; 125 μg/mL) | Rate of pMAPK-positive cells (%) ([1]; 250 μg/mL) | Rate of pMAPK-positive cells (%) ([1]; 500 μg/mL) | BBB score ([2]; 500 μg/kg orally once daily, after fifteen days, control 9.8) | BBB score ([2]; 100 μg/kg orally once daily, after nine days, control 3.5) | BBB score ([2]; 500 μg/kg orally once daily, after fourteen days, control 8.5) | BBB score ([2]; 500 μg/kg orally once daily, after seven days, control 1.8) |
| --- | --- | --- | --- | --- | --- | --- | --- | --- |
| CCCCCCC/C=C/C(=O)NCCN(C)C [Compound 36, (E)-N-2-(dimethylamino)ethyl dec-2-enamide] | 12 | 70 | 89 | 43 | 12.3 |  |  |  |
| CCCCCCC/C=C/C(=O)NCCN(CC)CC [Compound 37, (E)-N-2-(diethylamino)ethyl dec-2-enamide] | 6 | 43 | 48 | 0 |  |  |  |  |
| CCCCCCC/C=C/C(=O)OCCN(CC)CC [Compound 6, (E)-2-(diethylamino)ethyl dec-2-enoate] | 31 | 51 |  |  |  | 8.3 |  |  |
| CCCCCCC/C=C/C(=O)OCCN(C)C [Compound 1, (E)-2-(dimethylamino)ethyl dec-2-enoate] | 4 | 12 | 36 | 32 |  |  |  |  |
| CCCCCCC/C=C/C(=O)SCCN(C)C [Compound 55, (E)-S-2-(dimethylamino)ethyl dec-2-enethioate] | 20 | 46 | 41 | 10 |  |  | 12.3 | 5.3 |
